Measured values as given in patent publication US20080206374A1 (priority 2003, published 2008).

Experiments:
[1] = influence upon the lethal effect of MTX; assay type: in vivo, mice; details: MTX 22 mg/kg i.p.; composition 0.2 ml i.p. daily for eight days
Experimental: 2) The mice were divided into two groups and inoculated the tumor cells according to the method above. […] On the 4th day of the administration, the mice were inoculated tumor cell and intraperitoneally injected 22 mg/kg aqueous solution of MTX after 6 hours of inoculation. Within 10 days after MTX injection, the death rate of animals was observed and the survival rates of the two groups of animals were compared.

[2] = system: acute lung injury caused by the lipopolysaccharide; assay: LPS acute lung injury (ALI) model; assay type: in vivo, Wistar rats
Experimental: And each of the modeling group, the LPS+DEX Group and LPS+SQ Group was again divided into 3 time phasing groups, that is, a one-hour group, a two-hour group, and a four-hour group. There are 10 groups in total, 6 […] per group in this experiment.
The 18 rats of the LPS+DEX Group were injected abdominally with 50 mg/kg Dexamethasone 2 hours before modeling. The 18 rats of the LPS+NS Group were injected with physiological saline 2 hours before modeling. Except for the normal Control group, all the three above-mentioned groups were injected with LPS (4 mg/kg) in the caudal vein.
After all the animals being anaesthetized with chloral hydrate through abdominal injection at the determined time phasing point, 2 ml blood was sampled from the carotid, and centrifuged at 800 gr/min for 8 minutes. The supernatant was extracted and placed at −20° C. in a refrigerator for future usage. The chest was opened and the lower lobes of the right lung were sampled They were placed in the EP tubes treated with DEPC solution and immediately put at −70° C. in a refrigerator for the total RNA extraction. The upper lobes of the right lung were sampled and dipped in 10% formaldehyde solution to fix. The left lungs were taken for the ratio of wet/dry weight measurement.
4. At the corresponding timing point, the animal lung tissues were taken and observed with human eyes and under the microscope using HE Staining Method. The ratio of tissues wetdry weight was also measured.

[3] = LPS 4 mg/kg, DEX 50 mg/kg 2 hours before, SQ 2 ml daily 1 week before

SMILES | Number of Dead Animal after administered MTX, 4th day [1] | Number of Dead Animal after administered MTX, 5th day [1] | Number of Dead Animal after administered MTX, 6th day [1] | Number of Dead Animal after administered MTX, 7th day [1] | Survival Number after 10 days [1] | Survival Rate % after 10 days [1] | Pathological Classification of lung injury: cases Light, 1-hour ([2]; LPS 4 mg/kg caudal vein, DEX 50 mg/kg abdominally 2 hours before, SQ 2 ml abdominally daily 1 week before) | Lung W/D Ratio, 1 h [2, 3] | Lung W/D Ratio, 2 h [2, 3] | Lung W/D Ratio, 4 h [2, 3] | Pathological Classification of lung injury: cases Light, 2-hour [2, 3] | Pathological Classification of lung injury: cases Light, 4-hour [2, 3] | Pathological Classification of lung injury: cases Middle, 1-hour [2, 3] | Pathological Classification of lung injury: cases Middle, 2-hour [2, 3] | Pathological Classification of lung injury: cases Middle, 4-hour [2, 3] | Pathological Classification of lung injury: cases Severe, 1-hour [2, 3] | Pathological Classification of lung injury: cases Severe, 2-hour [2, 3] | Pathological Classification of lung injury: cases Severe, 4-hour [2, 3] | symptoms (tachypnea, lips cyanosis, mental wilting) after LPS (in words) ([2]; compared with LPS+NS Group) | general observation of lung tissues (in words) ([2]; same time phasing points, in comparison to Group LPS+NS)
CN(Cc1cnc2nc(N)nc(N)c2n1)c1ccc(C(=O)N[C@@H](CCC(=O)O)C(=O)O)cc1 [MTX, Methotrexate] | 1 | 7 | 3 | 6 | 4 | 19.04% |  |  |  |  |  |  |  |  |  |  |  |  |  | 
C[C@@H]1C[C@H]2[C@@H]3CCC4=CC(=O)C=C[C@]4(C)[C@@]3(F)[C@@H](O)C[C@]2(C)[C@@]1(O)C(=O)CO [LPS + DEX, Dexamethasone] |  |  |  |  |  |  | 6 | 4.82 ± 0.23*Δ | 4.59 ± 0.19*Δ# | 4.57 ± 0.10*Δ# | 4 | 6 | 0 | 2 | 0 | 0 | 0 | 0 | relatively mild | mitigated to different extent
